Laboratory results as given in US20240325353A1, “COMPOUND FOR TREATMENT OF COGNITIVE DISORDERS” (Syndesi Therapeutics SA, priority 2021, published 2024).

System: brain activity (BOLD signal)
Test: pharmaco-MRI (BOLD) neuroimaging study in conscious rats
Type: in vivo, rat
Conditions: for median number of positive voxels (positive BOLD volume of activation): 20-30 min post injection
Method: Test Substance, Reference Substance(s), and Vehicle: the compound of example 1 test substance for dose-dependent change in BOLD signal was provided by Syndesi along with the formula for the vehicle.
Subjects: Forty-eight male Sprague Dawley rats weighing ca 275-300 g were obtained from Charles River Laboratories (Wilmington, MA, USA). Rat were maintained on a 12:12 hour light:dark cycle with a lights on at 0700 hours and allowed access to food and water ad libitum. All rats were acquired and cared for in accordance with the guidelines published in the Guide for the Care and Use of Laboratory Animals (National Institutes of Health Publications No. 85-23, Revised 1985) and adhered to the National Institutes of Health and the American Association for Laboratory Animal Science guidelines.
Acclimation: To reduce the stress associated with head restraint, rats were acclimated to the restraining system (head holder and body tube) one week prior to their actual imaging session. The design of the restraining system (Animal Imaging Research, Holden MA, USA) included a padded head support obviating the need for ear bars helping to reduce animal discomfort while minimizing motion artifact. These acclimation sessions were run each day for 4-5 consecutive days. Rats were briefly anesthetized with 2-3% isoflurane while being secured into the head holder. The forepaws were secured with tape. When fully conscious, the imaging system is placed into a black opaque box “mock scanner” for 30 min with a tape-recording of the MRI pulse sequence to simulate the bore of the magnet and the imaging protocol. A significant decline in respiration, heart rate, motor movements, and plasma corticosterone has been measured when the first and last acclimation periods are compared (King et al., 2005). The reduction in autonomic and somatic measures of arousal and stress improve the signal resolution and quality of the images.
Image Acquisition: Animals were scanned at 300 MHz using a quadrature transmit/receive volume coil built into the rat head holder and restraining system for awake animal imaging (Animal Imaging Research, Holden, MA, USA). The design of the coil provided complete coverage of the brain from olfactory bulbs to brain stem with excellent B1 field homogeneity. Experiments were conducted using a Bruker Biospec 7.0 T/20-cm USR horizontal magnet (Bruker, Billerica, MA, USA) and a 20-G/cm magnetic field gradient insert (ID=12 cm) capable of a 120-μs rise time. At the beginning of each imaging session, a high-resolution anatomical data set was collected using the RARE pulse sequence [22 slice; 1.0 mm; field of view (FOV) 3.0 cm; matrix size 256×256; repetition time (TR) 2.5 s; echo time (TE) 12 ms; NEX 2; 3 min acquisition time]. Functional images were acquired using a multi-slice half-Fourier acquisition single-shot turbo spin echo (HASTE) pulse sequence. Bruker Paravision automatically finds the basic frequency, shims, power requirements for 90° and 180° pulses and sets the receiver gain. A single scanning session acquired 22 slices, 1.0 mm thick, every 6.0 s (TR), using an effective TE of 48 ms, FOV 3.0 cm, matrix size 96×96, NEX 1, and repeated 450 times for a total scanning time of 45 min. The in-plane pixel resolution was 312 μm2.
Data Processing: Data are coregistered to a mean functional image using SPM8's coregistrational code with the following parameters: Quality: 0.97, Smoothing: 0.35 mm, Separation: 0.5 mm. Gaussian smoothing was performed with a FWHM of 0.8 mm. Images were aligned and registered to the 3D rat brain atlas, segmented and labeled with 171 discrete anatomical regions. The alignment process was facilitated by an interactive graphic user interface. The registration process involved translation, rotation and scaling independently and in all three dimensions. Matrices that transformed each subject's anatomy were used to embed each slice within the atlas. […]

O=C1C[C@H](c2cc(F)c(F)c(F)c2)CN1Cn1ncnc1Cl [compound of example 1, (4R)-1-[(5-chloro-1H-1,2,4-triazol-1-yl)methyl]-4-(3,4,5-trifluorophenyl)pyrrolidin-2-one]
median number of positive voxels (positive BOLD volume of activation) (lateral posterior thalamic nucleus, 0.1 mg/kg i.p.): 11 | median number of positive voxels (positive BOLD volume of activation) (lateral posterior thalamic nucleus, 0.3 mg/kg i.p.): 3 | median number of positive voxels (positive BOLD volume of activation) (lateral posterior thalamic nucleus, 1.0 mg/kg i.p.): 0 | median number of positive voxels (positive BOLD volume of activation) (lateral preoptic area, 0.1 mg/kg i.p.): 12 | median number of positive voxels (positive BOLD volume of activation) (lateral preoptic area, 0.3 mg/kg i.p.): 3 | median number of positive voxels (positive BOLD volume of activation) (lateral preoptic area, 1.0 mg/kg i.p.): 0 | median number of positive voxels (positive BOLD volume of activation) (lateral septal nucleus, 0.1 mg/kg i.p.): 34 | median number of positive voxels (positive BOLD volume of activation) (lateral septal nucleus, 0.3 mg/kg i.p.): 35 | median number of positive voxels (positive BOLD volume of activation) (lateral septal nucleus, 1.0 mg/kg i.p.): 4 | median number of positive voxels (positive BOLD volume of activation) (paraventricular nucleus (first entry, P 0.003), 0.1 mg/kg i.p.): 4 | median number of positive voxels (positive BOLD volume of activation) (paraventricular nucleus (first entry, P 0.003), 0.3 mg/kg i.p.): 5 | median number of positive voxels (positive BOLD volume of activation) (paraventricular nucleus (first entry, P 0.003), 1.0 mg/kg i.p.): 0 | median number of positive voxels (positive BOLD volume of activation) (prelimbic ctx, 0.1 mg/kg i.p.): 50 | median number of positive voxels (positive BOLD volume of activation) (prelimbic ctx, 0.3 mg/kg i.p.): 32 | median number of positive voxels (positive BOLD volume of activation) (prelimbic ctx, 1.0 mg/kg i.p.): 4 | median number of positive voxels (positive BOLD volume of activation) (reticular nucleus midbrain, 0.1 mg/kg i.p.): 19 | median number of positive voxels (positive BOLD volume of activation) (reticular nucleus midbrain, 0.3 mg/kg i.p.): 18 | median number of positive voxels (positive BOLD volume of activation) (reticular nucleus midbrain, 1.0 mg/kg i.p.): 1 | median number of positive voxels (positive BOLD volume of activation) (retrosplenial caudal ctx, 0.1 mg/kg i.p.): 43 | median number of positive voxels (positive BOLD volume of activation) (retrosplenial caudal ctx, 0.3 mg/kg i.p.): 27 | median number of positive voxels (positive BOLD volume of activation) (retrosplenial caudal ctx, 1.0 mg/kg i.p.): 0 | median number of positive voxels (positive BOLD volume of activation) (subiculum dorsal, 0.1 mg/kg i.p.): 13 | median number of positive voxels (positive BOLD volume of activation) (subiculum dorsal, 0.3 mg/kg i.p.): 12 | median number of positive voxels (positive BOLD volume of activation) (subiculum dorsal, 1.0 mg/kg i.p.): 0 | median number of positive voxels (positive BOLD volume of activation) (substantia nigra reticularis, 0.1 mg/kg i.p.): 19 | median number of positive voxels (positive BOLD volume of activation) (substantia nigra reticularis, 0.3 mg/kg i.p.): 22 | median number of positive voxels (positive BOLD volume of activation) (substantia nigra reticularis, 1.0 mg/kg i.p.): 2 | median number of positive voxels (positive BOLD volume of activation) (triangular septal nucleus, 0.1 mg/kg i.p.): 4 | median number of positive voxels (positive BOLD volume of activation) (triangular septal nucleus, 0.3 mg/kg i.p.): 1 | median number of positive voxels (positive BOLD volume of activation) (triangular septal nucleus, 1.0 mg/kg i.p.): 0 | brain areas significantly affected by the four treatments (vehicle, 0.1, 0.3, 1.0 mg/kg, of 171 brain regions): 71/171 | median number of positive voxels (positive BOLD volume of activation) (ventral lateral striatum, 0.1 mg/kg i.p.): 82 | median number of positive voxels (positive BOLD volume of activation) (ventral lateral striatum, 0.3 mg/kg i.p.): 1 | median number of positive voxels (positive BOLD volume of activation) (ventral lateral striatum, 1.0 mg/kg i.p.): 0 | median number of positive voxels (positive BOLD volume of activation) (ventral medial striatum, 0.1 mg/kg i.p.): 47 | median number of positive voxels (positive BOLD volume of activation) (ventral medial striatum, 0.3 mg/kg i.p.): 18 | median number of positive voxels (positive BOLD volume of activation) (ventral medial striatum, 1.0 mg/kg i.p.): 0 | median number of positive voxels (positive BOLD volume of activation) (ventral orbital ctx, 0.1 mg/kg i.p.): 19 | median number of positive voxels (positive BOLD volume of activation) (ventral orbital ctx, 0.3 mg/kg i.p.): 4 | median number of positive voxels (positive BOLD volume of activation) (ventral orbital ctx, 1.0 mg/kg i.p.): 1 | median number of positive voxels (positive BOLD volume of activation) (ventral subiculum, 0.1 mg/kg i.p.): 26 | median number of positive voxels (positive BOLD volume of activation) (ventral subiculum, 0.3 mg/kg i.p.): 25 | median number of positive voxels (positive BOLD volume of activation) (ventral subiculum, 1.0 mg/kg i.p.): 3 | median number of positive voxels (positive BOLD volume of activation) (ventral tegmental area, 0.1 mg/kg i.p.): 8 | median number of positive voxels (positive BOLD volume of activation) (ventral tegmental area, 0.3 mg/kg i.p.): 5 | median number of positive voxels (positive BOLD volume of activation) (ventral tegmental area, 1.0 mg/kg i.p.): 0 | median number of positive voxels (positive BOLD volume of activation) (visual 1 ctx, 0.1 mg/kg i.p.): 27 | median number of positive voxels (positive BOLD volume of activation) (visual 1 ctx, 0.3 mg/kg i.p.): 21 | median number of positive voxels (positive BOLD volume of activation) (visual 1 ctx, 1.0 mg/kg i.p.): 0 | median number of positive voxels (positive BOLD volume of activation) (zona incerta, 0.1 mg/kg i.p.): 9 | median number of positive voxels (positive BOLD volume of activation) (zona incerta, 0.3 mg/kg i.p.): 3 | median number of positive voxels (positive BOLD volume of activation) (zona incerta, 1.0 mg/kg i.p.): 0
